Source: PubChem BioAssay AID248 (DTP/NCI, 2004)
“And” between values parts separate entries of the source, which are not always exact repeats. Identical values can stand only once. Toxic doses and inconclusive results are not listed. Rule as the data show it: active = T/C of 150% or more; inactive = T/C below 125%.

Tested on: L1210 leukemia ip in BDF1 mice, survival T/C
Assay: NCI In Vivo Anticancer Drug Screen. Data for tumor model L1210 Leukemia (intraperitoneal) in B6D2F1 (BDF1) mice
Conditions: endpoint: mean survival time, higher = longer survival
Summary of the method: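 Survival endpoint. Drug-treated group vs vehicle group, expressed as T divided by C. Tumor passaged by transplantation.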

[1] = dose: 50.0 mg/kg/injection, schedule: Q01DX001 (ip), vehicle: saline
[2] = dose: 100.0 mg/kg/injection, schedule: Q01DX001 (ip), vehicle: saline
[3] = dose: 200.0 mg/kg/injection, schedule: Q01DX001 (ip), vehicle: saline
[4] = dose: 400.0 mg/kg/injection, schedule: Q01DX001 (ip), vehicle: saline
[5] = dose: 100.0 mg/kg/injection, schedule: Q04DX003 (ip), vehicle: saline
[6] = dose: 200.0 mg/kg/injection, schedule: Q04DX003 (ip), vehicle: saline
[7] = dose: 100.0 mg/kg/injection, schedule: Q01DX009 (ip), vehicle: Klucel (hydroxypropylcellulose) (HPC)
[8] = dose: 200.0 mg/kg/injection, schedule: Q01DX009 (ip), vehicle: Klucel (hydroxypropylcellulose) (HPC)
[9] = dose: 400.0 mg/kg/injection, schedule: Q01DX009 (ip), vehicle: Klucel (hydroxypropylcellulose) (HPC)
[10] = dose: 100.0 mg/kg/injection, schedule: Q01DX009 (ip), vehicle: saline with Tween-80
[11] = dose: 200.0 mg/kg/injection, schedule: Q01DX009 (ip), vehicle: saline with Tween-80
[12] = dose: 400.0 mg/kg/injection, schedule: Q01DX009 (ip), vehicle: saline with Tween-80
[13] = dose: 25.0 mg/kg/injection, schedule: Q04DX003 (ip), vehicle: saline
[14] = dose: 50.0 mg/kg/injection, schedule: Q04DX003 (ip), vehicle: saline

Measured: T/C

Cc1ccc(C2(C)CCC(=O)c3cc(C)c(C)cc32)cc1C (centres undefined)
inactive: [1] 97 % of control | [2] 100 % of control | [3] 94 % of control | [4] 103 % of control

CCOC(=O)C(C(=O)CC(C)C)C(C)C (centres undefined)
inactive: [1] 103 % of control | [2] 103 % of control | [3] 109 % of control | [4] 101 % of control

OCC1OC(OC2CCCCC2)C(O)C(O)C1O (centres undefined)
inactive: [5] 100 % of control | [6] 96 % of control | dose: 400.0 mg/kg/injection, schedule: Q04DX003 (ip), vehicle: saline 102 % of control

CC(C)(C)OC(=O)C(C1NC2C(=O)OCC2(CO)S1)N1C(=O)c2ccccc2C1=O (centres undefined)
inactive: dose: 100.0 mg/kg/injection, schedule: Q04DX003 (ip), vehicle: Klucel (hydroxypropylcellulose) (HPC) 95 % of control | dose: 200.0 mg/kg/injection, schedule: Q04DX003 (ip), vehicle: Klucel (hydroxypropylcellulose) (HPC) 92 % of control | dose: 400.0 mg/kg/injection, schedule: Q04DX003 (ip), vehicle: Klucel (hydroxypropylcellulose) (HPC) 101 % of control

ClCCN=Cc1ccc(Cl)cc1
inactive: [7] 96 % of control | dose: 100.0 mg/kg/injection, schedule: Q04DX002 (ip), vehicle: Klucel (hydroxypropylcellulose) (HPC) 96 % of control | [8] 91 % of control | dose: 200.0 mg/kg/injection, schedule: Q04DX002 (ip), vehicle: Klucel (hydroxypropylcellulose) (HPC) 100 % of control | [9] 96 % of control | dose: 400.0 mg/kg/injection, schedule: Q04DX002 (ip), vehicle: Klucel (hydroxypropylcellulose) (HPC) 100 % of control

CCCC(/C=N/Nc1ccc([N+](=O)[O-])cc1[N+](=O)[O-])=C\c1ccccc1
inactive: dose: 100.0 mg/kg/injection, schedule: Q01DX001 (ip), vehicle: saline with Tween-80 88 % of control | dose: 200.0 mg/kg/injection, schedule: Q01DX001 (ip), vehicle: saline with Tween-80 88 % of control

CCOC(=O)/C=C1\CCCc2cc(C)c(C)cc21
inactive: dose: 100.0 mg/kg/injection, schedule: Q04DX003 (ip), vehicle: other 105 % of control | dose: 200.0 mg/kg/injection, schedule: Q04DX003 (ip), vehicle: other 94 % of control | dose: 400.0 mg/kg/injection, schedule: Q04DX003 (ip), vehicle: other 104 % of control

COc1ccc(C(=O)Nc2ccccc2)cc1NC(=O)NC(C)=O
inactive: [7] 97 % of control | [8] 106 % of control | [9] 100 % of control

Nc1ccc2c(c1)C(=NO)c1cc(N)ccc1-2
inactive: dose: 100.0 mg/kg/injection, schedule: Q01DX001 (ip), vehicle: carboxymethylcellulose (CMC) 106 % of control | dose: 200.0 mg/kg/injection, schedule: Q01DX001 (ip), vehicle: carboxymethylcellulose (CMC) 108 % of control

COc1cc2c(cc1OC)C(CCc1ccc(Cl)cc1)N(C)CC2 (centres undefined)
inactive: dose: 12.5 mg/kg/injection, schedule: Q01DX009 (ip), vehicle: Klucel (hydroxypropylcellulose) (HPC) 113 % of control | dose: 25.0 mg/kg/injection, schedule: Q01DX009 (ip), vehicle: Klucel (hydroxypropylcellulose) (HPC) 108 % of control | dose: 50.0 mg/kg/injection, schedule: Q01DX009 (ip), vehicle: Klucel (hydroxypropylcellulose) (HPC) 104 % of control | [7] 116 % of control | [8] 113 % of control

O=c1[nH]c(-c2ccccc2)nc(-c2ccccc2)c1CCO
inactive: [10] 92 % of control | [11] 86 % of control | [12] 91 % of control

CCOC(=O)C(CCc1cc2ccccc2[nH]1)(C(=O)OCC)N1C(=O)c2ccccc2C1=O
inactive: [7] 94 % of control | [8] 89 % of control | [9] 89 % of control

C=CCNC(=S)Nc1cccc(OC(=O)NC(C)(C)C)c1
inactive: [7] 90 % of control | [8] 90 % of control | [9] 92 % of control

NCC(=O)c1ccc(OC(=O)c2ccccc2)cc1
inactive: [10] 92 % of control | dose: 100.0 mg/kg/injection, schedule: Q04DX003 (ip), vehicle: saline with Tween-80 95 % of control | [11] 94 % of control | dose: 200.0 mg/kg/injection, schedule: Q04DX003 (ip), vehicle: saline with Tween-80 95 % of control | [12] 103 % of control | dose: 400.0 mg/kg/injection, schedule: Q04DX003 (ip), vehicle: saline with Tween-80 96 % of control

N#CC(Cl)(Cl)CCl
inactive: dose: 12.0 mg/kg/injection, schedule: Q04DX003 (ip), vehicle: saline 105 % of control | [13] 96 % of control | [14] 96 % of control | [5] 103 % of control and 105 % of control

O=C1CC2C(=O)CC1C(C(=O)O)C2C(=O)O (centres undefined)
inactive: dose: 75.0 mg/kg/injection, schedule: Q01DX001 (ip), vehicle: saline 102 % of control | dose: 100.0 mg/kg/injection, schedule: Q01DX001 (ip), vehicle: Klucel (hydroxypropylcellulose) (HPC) 103 % of control | dose: 150.0 mg/kg/injection, schedule: Q01DX001 (ip), vehicle: saline 104 % of control | dose: 200.0 mg/kg/injection, schedule: Q01DX001 (ip), vehicle: Klucel (hydroxypropylcellulose) (HPC) 119 % of control | dose: 300.0 mg/kg/injection, schedule: Q01DX001 (ip), vehicle: saline 105 % of control | dose: 400.0 mg/kg/injection, schedule: Q01DX001 (ip), vehicle: Klucel (hydroxypropylcellulose) (HPC) 98 % of control

N#CSCC(=O)OC1CCCCC1
inactive: dose: 5.0 mg/kg/injection, schedule: Q01DX001 (ip), vehicle: saline 98 % of control | dose: 10.0 mg/kg/injection, schedule: Q01DX001 (ip), vehicle: saline 96 % of control | dose: 20.0 mg/kg/injection, schedule: Q01DX001 (ip), vehicle: saline 96 % of control | dose: 40.0 mg/kg/injection, schedule: Q01DX001 (ip), vehicle: saline 93 % of control

CN(C)CCCN1c2ccccc2S(=O)c2ccc(Cl)cc21 (centres undefined)
inactive: dose: 12.5 mg/kg/injection, schedule: Q01DX009 (ip), vehicle: saline 96 % of control | dose: 25.0 mg/kg/injection, schedule: Q01DX009 (ip), vehicle: saline 102 % of control | [13] 109 % of control | dose: 50.0 mg/kg/injection, schedule: Q01DX009 (ip), vehicle: saline 111 % of control | [14] 106 % of control | dose: 100.0 mg/kg/injection, schedule: Q01DX009 (ip), vehicle: saline 96 % of control | [5] 95 % of control | dose: 200.0 mg/kg/injection, schedule: Q01DX009 (ip), vehicle: saline 107 % of control | [6] 103 % of control

CS(=O)(=O)CCN1C(=O)C2C3CCC(O3)C2C1=O (centres undefined)
inactive: dose: 100.0 mg/kg/injection, schedule: Q04DX002 (ip), vehicle: saline with Tween-80 112 % of control | dose: 200.0 mg/kg/injection, schedule: Q04DX002 (ip), vehicle: saline with Tween-80 108 % of control | dose: 400.0 mg/kg/injection, schedule: Q04DX002 (ip), vehicle: saline with Tween-80 97 % of control

OC1CCC2C3CC=CC3C12 (centres undefined)
inactive: dose: 75.0 mg/kg/injection, schedule: Q01DX001 (ip), vehicle: other 93 % of control | dose: 150.0 mg/kg/injection, schedule: Q01DX001 (ip), vehicle: other 98 % of control | dose: 300.0 mg/kg/injection, schedule: Q01DX001 (ip), vehicle: other 106 % of control
